According to patent publication US20120184504A1, “"The Use of a PAR-1 Antagonist in Combination with a P2Y12 ADP Receptor Antagonist for Inhibition of Thrombosis"” (priority 2009, published 2012):
Values belong to the molecule of their own block, whether it stands above or below them.

Experiments:
Type in all cases: in vivo, cynomolgus monkeys
[1] = system: platelet aggregation induced by TRAP (3 μM); assay: Ex vivo whole blood platelet aggregation induced by TRAP
Method: (§1) Animals instrumented to produce CFRs were administered SCH 602539, cangrelor, or a combination of SCH 602539 and cangrelor. The dosing regimens of SCH 602539 were selected to provide a broad range of inhibition of platelet aggregation induced by 1 μM thrombin receptor agonist peptide (TRAP), whereas the doses of cangrelor were selected to achieve 50%-60% inhibition of platelet aggregation induced by 10 μM ADP (the degree of inhibition obtained with clopidogrel). Group 1 received drug vehicle only (20% hydroxypropyl betacyclodextran or saline, 2 mL i.v.). Group 2 received SCH 602539 dissolved in 20% hydroxypropyl betacyclodextran administered as sequential i.v. boluses of 0.1, 0.3, or 1 mg/kg, at 30-minute intervals. Group 3 received cangrelor dissolved in saline and administered as an intravenous infusion of 0.1, 0.2, or 0.3 μg/kg/min for 30 minutes each. Group 4 received a combination of SCH 602539 bolus plus cangrelor infusion (at respective doses of: 1) 0.05 mg/kg+0.05 μg/kg/min; 2) 0.1 mg/kg+0.1 μg/kg/min; and 3) 0.15 mg/kg+0.1 μg/kg/min. The three dose regimens within each group were administered sequentially over the consecutive 30-minute periods coinciding with the re-induction of endothelial injury. Study drug or vehicle was administered after stable CFRs were achieved, and upon the completion of a 30-minute baseline CFR collection period, drug(s) or vehicle were administered incrementally (every 30 minutes) either as a bolus (SCH 602539) or as an infusion (cangrelor), and their effects on CFRs were monitored in the next three 30-minute observation periods. Blood samples (3 mL) were collected from the femoral arterial catheter at the end of each 30-minute observation period for assessment of ex vivo platelet aggregation and coagulation parameters.
(§2) Platelet aggregation studies were performed ex viva on blood samples obtained from the monkeys subjected to the Folts model, using a ChronoLog whole blood aggregometer (Model 540VS, Havertown, Pa.). Briefly, 0.5 mL of blood was incubated with 0.5 mL of normal saline at 37° C. in a cuvette containing a stir bar for 2 minutes. Platelet agonists used in this study included TRAP (3 μM), ADP (10 μM), the thromboxane A2 mimetic U46619 (10 μM), and collagen (3 μg/mL). Platelet aggregation was monitored for 5 minutes following the addition of the agonist. The peak aggregation response was recorded in ohms. In addition, standard coagulation parameters, including prothrombin time (PT), activated partial thromboplastin time (APTT), and activated clotting time (ACT), were assessed.

[2] = system: platelet aggregation induced by ADP (10 μM); assay: Ex vivo whole blood platelet aggregation induced by ADP
Method: as §1, §2

[3] = system: platelet aggregation induced by thromboxane A2 mimetic U46619 (10 μM); assay: Ex vivo whole blood platelet aggregation induced by U46619
Method: as §1, §2

[4] = system: platelet aggregation induced by collagen (3 μg/mL); assay: Ex vivo whole blood platelet aggregation induced by collagen
Method: as §1, §2

[5] = Prothrombin time (PT) in plasma, Folts model animals; conditions: for PT: i.v.; for effect on PT: tested doses
Method: as §1, §2
(§3) PT and APTT assays were performed with plasma, while the ACT assay was performed with whole blood. Data are presented as mean±SEM (n=5-6/group).

[6] = Activated clotting time (ACT) in whole blood, Folts model animals; conditions: for ACT: i.v.; for effect on ACT: tested doses
Method: as §1, §2, §3

[7] = cangrelor 0.2 and 0.3 μg/kg/min
[8] = SCH 602539 0.3 mg/kg and 1 mg/kg

PT ([5]; Cangrelor 0.1 μg/kg/min × 30 min, plasma, mean±SEM, baseline 10.6 ± 0.4): 10.4 ± 0.3 s
PT ([5]; Cangrelor 0.2 μg/kg/min × 30 min, baseline 10.6 ± 0.4): 10.8 ± 0.6 s
PT ([5]; Cangrelor 0.3 μg/kg/min × 30 min, baseline 10.6 ± 0.4): 10.7 ± 0.6 s
effect on PT [5]: no effect
ACT ([6]; Cangrelor 0.1 μg/kg/min × 30 min, whole blood, baseline 77 ± 3.7): 79 ± 2.3 s
ACT ([6]; Cangrelor 0.2 μg/kg/min × 30 min, baseline 77 ± 3.7): 76 ± 1.7 s
ACT ([6]; Cangrelor 0.3 μg/kg/min × 30 min, baseline 77 ± 3.7): 74 ± 3.5 s
effect on ACT [6]: no effect
SMILES: CSCCNc1nc(SCCC(F)(F)F)nc2c1ncn2[C@@H]1O[C@H](COP(=O)(O)OP(=O)(O)C(Cl)(Cl)P(=O)(O)O)[C@@H](O)[C@H]1O [Cangrelor]
Aggregation, TRAP ([1]; Cangrelor 0.1 μg/kg/min, baseline 13 ± 3): 12 ± 3 ohms
Aggregation, TRAP ([1]; Cangrelor 0.2 μg/kg/min, baseline 13 ± 3): 12 ± 3 ohms
Aggregation, TRAP ([1]; Cangrelor 0.3 μg/kg/min, baseline 13 ± 3): 9 ± 3 ohms
effect on aggregation stimulated by 3 μM TRAP [1, 7]: did not interfere
Aggregation, ADP ([2]; Cangrelor 0.1 μg/kg/min, baseline 14 ± 3): 10 ± 2 ohms
Aggregation, ADP ([2]; Cangrelor 0.2 μg/kg/min, baseline 14 ± 3): 7 ± 1 ohms
Aggregation, ADP ([2]; Cangrelor 0.3 μg/kg/min, baseline 14 ± 3): 6 ± 1 ohms
Aggregation, U46619 ([3]; Cangrelor 0.1 μg/kg/min, baseline 15 ± 3): 12 ± 3 ohms
Aggregation, U46619 ([3]; Cangrelor 0.2 μg/kg/min, baseline 15 ± 3): 10 ± 4 ohms
Aggregation, U46619 ([3]; Cangrelor 0.3 μg/kg/min, baseline 15 ± 3): 10 ± 4 ohms
effect on aggregation stimulated by 10 μM U46619 [3, 7]: did not interfere
Aggregation, Collagen ([4]; Cangrelor 0.1 μg/kg/min, baseline 24 ± 3): 20 ± 3 ohms
Aggregation, Collagen ([4]; Cangrelor 0.2 μg/kg/min, baseline 24 ± 3): 20 ± 4 ohms
Aggregation, Collagen ([4]; Cangrelor 0.3 μg/kg/min, baseline 24 ± 3): 20 ± 3 ohms
effect on aggregation stimulated by 3 μg/mL collagen [4, 7]: did not interfere
inhibition of aggregation induced by collagen (discussion) ([4]; cangrelor, tested doses): modest numeric inhibition

SMILES: CCOC(=O)N[C@@H]1CC[C@@H]2[C@@H](C1)C[C@H]1C(=O)O[C@H](C)[C@H]1[C@H]2/C=C/c1ccc(-c2ccccn2)cn1 [SCH 602539]
Aggregation, TRAP ([1]; SCH 602539 0.1 mg/kg, baseline 14 ± 3): 9 ± 4 ohms
Aggregation, TRAP ([1]; SCH 602539 0.3 mg/kg, baseline 14 ± 3): 2 ± 2 ohms
inhibition of ex vivo platelet aggregation induced by 3 μM TRAP ([1]; two highest doses of SCH 602539 (0.3 mg/kg and 1 mg/kg)): > 80%
Aggregation, ADP ([2]; SCH 602539 0.1 mg/kg, baseline 15 ± 3): 14 ± 2 ohms
effect on aggregation induced by 10 μM ADP [2, 8]: did not affect
Aggregation, ADP ([2]; SCH 602539 0.3 mg/kg, baseline 15 ± 3): 16 ± 3 ohms
Aggregation, ADP ([2]; SCH 602539 1.0 mg/kg, baseline 15 ± 3): 13 ± 4 ohms
Aggregation, U46619 ([3]; SCH 602539 0.1 mg/kg, baseline 20 ± 5): 17 ± 3 ohms
effect on aggregation induced by 10 μM U46619 [3, 8]: did not affect
Aggregation, U46619 ([3]; SCH 602539 0.3 mg/kg, baseline 20 ± 5): 19 ± 4 ohms
Aggregation, U46619 ([3]; SCH 602539 1.0 mg/kg, baseline 20 ± 5): 21 ± 5 ohms
Aggregation, Collagen ([4]; SCH 602539 0.1 mg/kg, baseline 27 ± 4): 26 ± 2 ohms
effect on aggregation induced by 3 μg/mL collagen [4, 8]: did not affect
Aggregation, Collagen ([4]; SCH 602539 0.3 mg/kg, baseline 27 ± 4): 24 ± 3 ohms
Aggregation, Collagen ([4]; SCH 602539 1.0 mg/kg, baseline 27 ± 4): 29 ± 5 ohms
PT ([5]; SCH 602539 0.1 mg/kg, bolus, plasma, baseline 11.6 ± 0.4): 11.5 ± 0.2 s
PT ([5]; SCH 602539 0.3 mg/kg, bolus, baseline 11.6 ± 0.4): 11.8 ± 0.4 s
PT ([5]; SCH 602539 1.0 mg/kg, bolus, baseline 11.6 ± 0.4): 12.8 ± 1.1 s
effect on PT [5]: no effect
ACT ([6]; SCH 602539 0.1 mg/kg, bolus, whole blood, baseline 79 ± 5.9): 73 ± 2.2 s
ACT ([6]; SCH 602539 0.3 mg/kg, bolus, baseline 79 ± 5.9): 71 ± 4.4 s
ACT ([6]; SCH 602539 1.0 mg/kg, bolus, baseline 79 ± 5.9): 67 ± 4.9 s
effect on ACT [6]: no effect
